One assay has as its system CUL3. The assay is described as follows: Co-IP of Myc-CUL3 with HA-fused NPR1 or variants. The class given is binding, Arabidopsis thaliana. Conditions: for CUL3 pull-down signal in co-IP: 1 mM SA for 5 hr.
In assay [1] the test system is cytoplasmic condensates (SINCs). The assay is described as follows: Confocal imaging of localization and condensate (body) formation of GFP-fused NPR proteins and variants. Format: cell-based, Nicotiana benthamiana. Conditions: for SA-induced cytoplasmic body/condensate (SINC) formation: 5 mM SA for 2 hr. The method in brief: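 GFP fusions transiently expressed in N. benthamiana by Agrobacterium infiltration (OD600 1). For NPR1-GFP, 4-day Arabidopsis seedlings were vacuum-infiltrated and, at 48 hpi, soaked 2 h in water or SA. Airyscan confocal, 40× water objective, GFP ex 488 nm/em 505-530 nm; condensate number, size and intensity scored by automated thresholding.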

The mark [2] stands for this setting: 5 mM SA, single-cell imaging for 2 hr starting 40 min after induction.

This note sets out measurements from patent publication US20230227838A1, “ENHANCED CELL SURVIVAL AGAINST BIOTIC AND ABIOTIC STRESSES THROUGH SALICYLICK ACID-INDUCED NPR1 CONDENSATES” (priority 2020, published 2023).

Entries after “also recorded” stand apart in the source; their conditions may differ.

Regarding `O=C(O)c1ccccc1O` [SA, salicylic acid], the “NPR1-CUL3 and sim3-CUL3 interaction under dose response to SA” value with CUL3 (0-1 mM SA, 5 hr) is given as “increase in the interaction”.

In the case of “NPR1: wild-type Arabidopsis thaliana NPR1 protein, positive regulator of systemic acquired resistance”, the “SA-induced cytoplasmic body/condensate (SINC) formation” value in assay [1] is listed as “significant SA-inducible cytoplasmic body formation”. Further, in assay [1] (setting [2]), the “number of bodies, time-lapse” value is reported as “started to decrease after 50 min” and the “total fluorescence from each body, time-lapse” value is on record as “gradual increase in the signal intensity over time”. The “CUL3 pull-down signal in co-IP” value in the assay with CUL3 is recorded as “weak pull-down signal of CUL3”.

B1: sim3: SUMOylation-deficient mutant of NPR1 (protein)
chain: MDTTIDGFADSYEISSTSFVATDNTDSSIVYLAAEQVLTGPDVSALQLLSNSFESVFDSPDDFYSDAKLVLSDGREVSFHRCVLSARSSFFKSALAAAKKEKDSNNTAAVKLELKEIAKDYEVGFDSVVTVLAYVYSSRVRPPPKGVSECADENCCHVACRPAVDFMLEVLYLAFIFKIPELITLYQRHLLDVVDKVVIEDTLVILKLANICGKACMKLLDRCKEIIVKSNVDMVSLEKSLPEELVKEIIDRRKELGLEVPKVKKHVSNVHKALDSDDIELVKLLLKEDHTNLDDACALHFAVAYCNVKTATDLLKLDLADVNHRNPRGYTVLHVAAMRKEPQLAASALEKGASASEATLEGRTALMIAKQATMAVECNNIPEQCKHSLKGRLCVEILEQEDKREQIPRDVPPSFAVAADELKMTLLDLENRVALAQRLFPTEAQAAMEIAEMKGTCEFIVTSLEPDRLTGTKRTSPGVKIAPFRILEEHQSRLKALSKTVELGKRFFPRCSAVLDQIMNCEDLTQLACGEDDTAEKRLQKKQRYMEIQETLKKAFSEDNLELGNSSLTDSTSSTSKSTGGKRSNRKLSHRRR
modifications: left off: small tags and cut ends
notes: SUMOylation-deficient mutant of NPR1
For the molecule B1, in assay [1] (1 mM SA for 5 hr), the “condensate formation at lower SA concentration” value is “could form condensates at a lower concentration of SA”. For the same molecule, in the assay on CUL3, the “CUL3 pull-down signal in co-IP” value is “significantly stronger CUL3 pull-down signals”.

B2: S55/59D: phosphomimic mutant of NPR1 at S55/59 (protein)
chain: MDTTIDGFADSYEISSTSFVATDNTDSSIVYLAAEQVLTGPDVSALQLLSNSFEDVFDDPDDFYSDAKLVLSDGREVSFHRCVLSARSSFFKSALAAAKKEKDSNNTAAVKLELKEIAKDYEVGFDSVVTVLAYVYSSRVRPPPKGVSECADENCCHVACRPAVDFMLEVLYLAFIFKIPELITLYQRHLLDVVDKVVIEDTLVILKLANICGKACMKLLDRCKEIIVKSNVDMVSLEKSLPEELVKEIIDRRKELGLEVPKVKKHVSNVHKALDSDDIELVKLLLKEDHTNLDDACALHFAVAYCNVKTATDLLKLDLADVNHRNPRGYTVLHVAAMRKEPQLILSLLEKGASASEATLEGRTALMIAKQATMAVECNNIPEQCKHSLKGRLCVEILEQEDKREQIPRDVPPSFAVAADELKMTLLDLENRVALAQRLFPTEAQAAMEIAEMKGTCEFIVTSLEPDRLTGTKRTSPGVKIAPFRILEEHQSRLKALSKTVELGKRFFPRCSAVLDQIMNCEDLTQLACGEDDTAEKRLQKKQRYMEIQETLKKAFSEDNLELGNSSLTDSTSSTSKSTGGKRSNRKLSHRRR
modifications: left off: small tags and cut ends
For the molecule B2, the “SA-induced cytoplasmic body/condensate (SINC) formation” value in assay [1] is “inability to form SINCs; also recorded: fail to form cytoplasmic condensates”. For the same molecule, in the assay with CUL3, the “CUL3 pull-down signal in co-IP” value is listed as “very little signal”.
